Data: US20230285364A1, “USE OF A DHODH INHIBITOR COMPOUND IN COMBINATION CANCER THERAPY” (Servier Pharmaceuticals LLC, priority 2020, published 2023)
Where two headings read alike, the source gives them in different places.

Legend:
[1] = test system: MOLM13 xenograft model of AML; type: in vivo
Experimental: 5 × 10^6 MOLM13 cells were implanted subcutaneously into 5-6 week-old female CB17 SCID mice in serum free media with Matrigel 1:1. Tumor volume and body weights were monitored twice a week until the tumors reached ~ 150 mm^3. […] At the end of study, tumor, plasma, and liver tissues were collected at the indicated timepoints post-last dose for PK and biomarker analyses. […] Venetoclax was formulated with 60% Phosal 50, 30% PEG 400, and 10% ethanol and stored at 4° C.

[2] = test system: OCILY19 xenograft model of DLBCL; type: in vivo
Experimental: 5 × 10^6 OCILY cells were implanted subcutaneously into 5-6 week-old female CB17 SCID mice in serum free media with Matrigel 1:1. Tumor volume and body weights were monitored twice a week until the tumors reached ~ 150 mm^3. […] At the end of study, tumor, plasma, and liver tissues were collected at the indicated timepoints post-last dose for PK and biomarker analyses. […] Venetoclax was formulated with 60% Phosal 50, 30% PEG 400, and 10% ethanol and stored at 4° C.

[3] = cited from earlier work

In the case of “4-(4-{ [2-(4-chlorophenyl)-4,4- dimethylcyclohex-1-en-1-yl]methyl}piperazin-1-yl)-N-({3-nitro-4-[(tetrahydro-2H-pyran-4-ylmethyl)amino]phenyl}sulfonyl)-2-(1H-pyrrolo[2,3-b]pyridin-5-yloxy)benzamide) [Venetoclax]”, the “Tumor Growth Inhibition” value ([1]; Venetoclax 30 mg/kg alone) is reported as 27%, the “Tumor Growth Inhibition” value ([2]; Venetoclax 1 mg/kg alone) is reported as 3.6% and the “effect on tumor growth” value ([2]; venetoclax alone at the 1 m/kg dose) is reported as “no effect”.
For `Nc1ncn([C@@H]2O[C@H](CO)[C@@H](O)[C@H]2O)c(=O)n1` [Azacitidine, 4-amino-1-β-D-ribofuranozyl-s-triazin-2(1H)-one], the solubility ([3]; acetone, ethanol and methyl ketone) is given as “insoluble”, the solubility ([3]; dimethylsulfoxide (DMSO)) is given as “soluble” and the solubility ([3]; ethanol/water (50/50), propylene glycol and polyethylene glycol) is given as “slightly soluble”. For the same compound, the solubility ([3]; water, water-saturated octanol, 5% dextrose in water, N-methyl-2-pyrrolidone, normal saline and 5% Tween 80 in water) was “sparingly soluble”.
For `Cc1ccccc1-c1ccc(-c2cc(C(=O)O)c3c(c2)nnn3C)cc1` [Compound 1, 1-methyl-5-(2′-methyl-[1,1′-biphenyl]-yl)-1H-benzo[d][1,2,3]triazole-7-carboxylic acid], the “Tumor Growth Inhibition” value ([1]; Compound 1 30 mg/kg alone) was 24% and the “Tumor Growth Inhibition” value ([2]; Compound 1 30 mg/kg BID alone) was 56%.
In the case of `Nc1ncn([C@H]2C[C@H](O)[C@@H](CO)O2)c(=O)n1` [Decitabine, 4-amino-1-(2-deoxy-β-D-erythro-pentofuranosyl)-1,3,5-triazin-2(1H)one], the solubility ([3]; dimethylsulfoxide (DMSO)) is listed as “soluble”, the solubility ([3]; ethanol/water (50/50), methanol/water (50/50) and methanol) is listed as “slightly soluble” and the solubility ([3]; water) is listed as “sparingly soluble”.
